Laboratory results as given in patent US8314094B2, “Benzoxazinone derivative” (MSD K.K, priority 2007, dated 2012).

Target: T1, human LCE (Homo sapiens, UniProt Q9H5J4)
T1 sequence (Q9H5J4 1-265): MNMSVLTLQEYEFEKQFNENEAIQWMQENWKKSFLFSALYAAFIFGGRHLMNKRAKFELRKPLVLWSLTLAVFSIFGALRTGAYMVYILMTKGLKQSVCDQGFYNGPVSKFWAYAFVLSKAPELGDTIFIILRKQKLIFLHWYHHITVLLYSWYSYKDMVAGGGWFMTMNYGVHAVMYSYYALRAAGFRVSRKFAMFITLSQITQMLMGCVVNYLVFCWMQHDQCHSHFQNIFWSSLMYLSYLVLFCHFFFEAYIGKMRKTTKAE
Assay: LCE enzymatic activity inhibition test
Assay type: biochemical
Details: human LCE enzyme, palmitoyl-CoA and [14C]-malonyl-CoA as substrates, pH 6.5, 37° C. for 90 minutes
Method: An LCE enzymatic activity inhibition test was carried out by a modified method of Moon (J. Biol. Chem., Vol. 276, pp. 45358-45366, (2001)) et al. That is, the diluted test compound was added to a 96-well assay plate (Corning, 96-Well Assay Block) in an amount of 1.0 μL per well, and thereafter, 50 μL of a phosphate buffer solution (a 100 mM potassium phosphate buffer solution (pH 6.5)), 25 μL of a substrate solution (a 100 mM potassium phosphate buffer solution (pH 6.5), 4.0 μM rotenone, 80 μM fatty acid-free bovine serum albumin, 160 μM palmitoyl-CoA, 80 μM malonyl-CoA, 3.5 μM [^14C]-malonyl-CoA (1.92 GBq/mmol, manufactured by Amersham, Inc.)) was added to each well, and further, 25 μL of an enzyme solution (a 100 mM potassium phosphate buffer solution (pH 6.5), 100 μg/mL human LCE) was added thereto. Then, the upper part of the plate was hermetically closed with a seal member, and the plate was incubated at 37° C. for 90 minutes while gently shaking and stirring. Thereafter, to each well, 100 μL of 5 N HCl was added and the assay plate was stirred at room temperature for 5 minutes, whereby the enzymatic reaction was stopped and also acyl-CoA was hydrolyzed. Thereafter, the enzymatic reaction solution in each well was adsorbed to each well of a 96-well GF/C filter plate (PerkinElmer, Unifilter 96GF/C) through which water had been passed in advance, and then, each well was washed with water to remove unadsorbed malonyl-CoA and the GF/C filter plate was dried at 50° C. for 60 minutes. Thereafter, to each well, 30 μL of a scintillator (PerkinElmer, Microscinti 0) was added and the upper part of the plate was sealed, and the radioactivity of the fixed [^14C] was measured using a microplate scintillation counter (PerkinElmer, Top Count) from which the enzymatic activity was determined The human LCE enzyme inhibitory activity of the test compound was calculated using the radioactivity obtained from a well to which DMSO containing no test compound is added as a control.

IC50 [nM]	Compound
22	O=C1Nc2ccc(Cl)cc2C(CCNC(=O)c2ccc(F)cc2)(C(F)(F)F)O1 (single isomer, unassigned) [Example 32, N-{2-[(4R*)-6-chloro-2-oxo-4-(trifluoromethyl)-1,4-dihydro-2H-3,1-benzoxazin-4-yl]ethyl}-4-fluorobenzamide]
17	O=C1Nc2ccc(Cl)cc2C(CCCNC(=O)c2ccc(F)cc2)(C(F)(F)F)O1 (single isomer, unassigned) [Example 33, N-{3-[(4R*)-6-chloro-2-oxo-4-(trifluoromethyl)-1,4-dihydro-2H-3,1-benzoxazin-4-yl]propyl}-4-fluorobenzamide]
128	O=C1Nc2ccc(Cl)cc2C(CCCNS(=O)(=O)c2ccccn2)(C(F)(F)F)O1 (single isomer, unassigned) [Example 119, N-{3-[(4R*)-6-chloro-2-oxo-4-(trifluoromethyl)-1,4-dihydro-2H-3,1-benzoxazin-4-yl]propyl}pyridine-2-sulfonamide]
5.4	O=C1Nc2ccc(Cl)cc2C(CCNS(=O)(=O)c2ccccn2)(C(F)(F)F)O1 (single isomer, unassigned) [Example 120, N-{2-[(4R*)-6-chloro-2-oxo-4-(trifluoromethyl)-1,4-dihydro-2H-3,1-benzoxazin-4-yl]ethyl}pyridine-2-sulfonamide]
119	Cn1cc(-c2ccc3c(c2)C(CNC(=O)c2ccc(F)cc2)(C(F)(F)F)OC(=O)N3)cn1 (single isomer, unassigned) [Example 133, (4S*)-4-fluoro-N-{[6-(1-methyl-1H-pyrazol-4-yl)-2-oxo-4-(trifluoromethyl)-1,4-dihydro-2H-3,1-benzoxazin-4-yl]methyl}benzamide]
17	O=C1Nc2ccc(-c3cc[nH]n3)cc2C(CNS(=O)(=O)c2ccc(F)cc2)(C(F)(F)F)O1 (single isomer, unassigned) [Example 150, 4-fluoro-N-{[(4S*)-2-oxo-6-(1H-pyrazol-3-yl)-4-(trifluoromethyl)-1,4-dihydro-2H-3,1-benzoxazin-4-yl]methyl}benzenesulfonamide]
16	O=C1Nc2ccc(-c3cc[nH]n3)cc2C(CNS(=O)(=O)c2ccccn2)(C(F)(F)F)O1 (single isomer, unassigned) [Example 151, N-{[(4S*)-2-oxo-6-(1H-pyrazol-3-yl)-4-(trifluoromethyl)-1,4-dihydro-2H-3,1-benzoxazin-4-yl]methyl}pyridine-2-sulfonamide]
6.6	O=C1Nc2ccc(-c3ccn[nH]3)cc2C(CNC(=O)c2ccc(F)cc2)(C(F)(F)F)N1 (single isomer, unassigned) [Example 182, 4-fluoro-N-{[(4S*)-2-oxo-6-(1H-pyrazol-5-yl)-4-(trifluoromethyl)-1,2,3,4-tetrahydroquinazolin-4-yl]methyl}benzamide]
45	O=C1Nc2ccc(Cl)cc2C(CNC(=O)c2ccc(F)cc2)(C(F)(F)F)N1 (single isomer, unassigned) [Example 187, N-{[(4S*)-6-chloro-2-oxo-4-(trifluoromethyl)-1,2,3,4-tetrahydroquinazolin-4-yl]methyl}4-fluorobenzamide]
14	O=C1Nc2ccc(-c3ccco3)cc2C(CNC(=O)c2ccc(F)cc2)(C(F)(F)F)O1 (stereo not shown) [Example 146, 4-fluoro-N-{[6-(2-furyl)-2-oxo-4-(trifluoromethyl)-1,4-dihydro-2H-3,1-benzoxazin-4-yl]methyl}benzamide]
13	O=C1Nc2ccc(-c3cccs3)cc2C(CNC(=O)c2ccc(F)cc2)(C(F)(F)F)O1 (stereo not shown) [Example 147, 4-fluoro-N-{[2-oxo-6-(2-thienyl)-4-(trifluoromethyl)-1,4-dihydro-2H-3,1-benzoxazin-4-yl]methyl}benzamide]
5.3	CN1CCN(c2ccc3c(c2)C(CNC(=O)c2ccc(F)cc2)(C(F)(F)F)OC(=O)N3)C1=O (stereo not shown) [Example 174, 4-fluoro-N-{[6-(3-methyl-2-oxazolidin-1-yl)-2-oxo-4-(trifluoromethyl)-1,4-dihydro-2H-3,1-benzoxazin-4-yl]methyl}benzamide]
7.3	Cc1ccn(-c2ccc3c(c2)C(CNC(=O)c2ccc(F)cc2)(C(F)(F)F)OC(=O)N3)n1 (stereo not shown) [Example 178, 4-fluoro-N-{[6-(3-methyl-1H-pyrazol-1-yl)-2-oxo-4-(trifluoromethyl)-1,4-dihydro-2H-3,1-benzoxazin-4-yl]methyl}benzamide]
